Data on nine compounds can be found in patent publication US20090082371A1, “Treatment of Viral Disease and Cancer With Nf-kappaB Inhibitors” (priority 2005, published 2009).

The test system of one series is HT29 cells. Nature of the series: Cancer cell growth, viable cell count by trypan blue exclusion. The class given is cell-based. Conditions: HT29, 5 μM.
In series [1] the test system is retrovirus expressing GFP. Conditions: 293T cells, tested dosages, two days after infection.
Text: 293T human embryonic kidney cells were infected with the GFP-retrovirus. […] Two days later, the cells were photographed with a digital camera mounted on a microscope. […] Data represent the mean±standard deviation of three independent experiments.
Two days later, the number of infected cells from two separate experiments was counted.
In the next series the test system is cells listed in Table 1. Nature of the series: Cancer cell growth, panel of cells listed in Table 1. Conditions: 5 μM, day 6, vs untreated cells. In kind it is cell-based, human. The text has this: (§1) The tested cells include LNCAP human prostate cancer cells, MDA-MB-468 human breast cancer cells, H1299 human lung cancer cells, AGS human gastric cancer cells, HepG2 human liver cancer cells, PANC-1 human pancreatic carcinoma cells, Jurkat human acute T-cell leukemia cells, A431 human epidermoid carcinoma cells, U251 human glioma cells, NBT-II human bladder cancer cells, and Hela human cervical cancer cells.

The test system of series [2] is VSV-G-enveloped HIV-Luciferase viruses (HIV-1).
For series [3], the system named is NBT-II human bladder cancer cells. In words: Cancer cell growth, viable cell count by trypan blue exclusion. The settings on record: for inhibition at 5 µM: Homo sapiens, 144 h. In kind it is cell-based.
Text: as §1

The subject of series [4] is AGS human gastric cancer cells. Described as above. The class given is cell-based. Conditions: for inhibition at 5 µM: Homo sapiens, 144 h.
Text: as §1

Series [5] concerns HepG2 human liver cancer cells. Described as above. The class given is cell-based. Conditions: HepG2, 5 μM.
Text: as §1

The test system of a further series is U251 human glioma cells. The series is described as above. The settings on record: U251, 5 μM; for cell apoptosis: day 6. In kind it is cell-based.
Text: as §1

The subject of series [6] is A431 human epidermoid carcinoma cells. The description is as above. In kind it is cell-based. The settings on record: A431, 5 μM; for % inhibition of cell growth: day 6, vs untreated cells; for cell apoptosis: day 6.
Text: as §1

Series [7] has as its system H1299 human lung cancer cells. Described as above. The class given is cell-based. Conditions: H1299, 5 μM.
Text: as §1

Series [8] concerns Hela human cervical cancer cells. The description is as above. The class given is cell-based. Conditions: for % inhibition of cell growth / inhibition at 5 µM: day 6, vs untreated cells; for inhibition at 5 µM: Homo sapiens, 144 h.
Text: as §1

The subject of series [9] is MDA-MB-468 human breast cancer cells. The series is described as above. The class given is cell-based. Conditions: MDA-MB-468, 5 μM.
Text: as §1

Series [10] concerns LNCAP human prostate cancer cells. Described as above. The class given is cell-based.
Text: as §1

The subject of series [11] is PANC-1 human pancreatic carcinoma cells. Described as above. Conditions: PANC-1, 5 μM. The class given is cell-based.
Text: as §1

Series [12] concerns Jurkat human acute T-cell leukemia cells. The series is described as above. The class given is cell-based. The settings on record: 5 μM.
Text: as §1

The mark [13] stands for this setting: day 6, about 4×10^4 cells at start.
[14] abbreviates: 5 μM, day 6, about 4×10^4 cells at start.
Where [15] appears, read: 5 μM, day 6, vs untreated cells.
The mark [16] stands for this setting: Homo sapiens, 144 h, day 6, vs untreated cells.

Regarding `Nc1ccc2ncnc(NCCc3ccc(Oc4ccccc4)cc3)c2c1`, the “Treated (cell number × 10^5)” value in the series with HT29 cells (setting [13]) is 1.9 ± 0.1 × 10^5; in [3] (setting [14]), 2.7 ± 0.1 × 10^5; in series [4] (setting [14]), 2.1 ± 0.1 × 10^5; in [5] (setting [13]), 0.8 ± 0.1 × 10^5; with U251 human glioma cells (setting [13]) it was 7.2 ± 0.2 × 10^5; in [6] (setting [13]), 3.2 ± 0.2 × 10^5. In addition, the “Treated (cell number × 10^5)” value in series [7] (setting [13]) is reported as 3 ± 0.2 × 10^5; in [8] (setting [14]), 1.1 ± 0.1 × 10^5; in series [9] (setting [13]), 5.4 ± 0.1 × 10^5; in [10] (setting [14]), 0.7 ± 0.2 × 10^5; in series [11] (setting [13]) it was 1.9 ± 0.1 × 10^5; in series [12] (setting [13]), 6.3 ± 0.4 × 10^5. Moreover, the “% inhibition of cell growth” value in the series with HT29 cells (day 6, vs untreated cells) stood at 50%; in series [3] (setting [15]) it was 10%; in series [4] (setting [15]), 10%; in series [5] (day 6, vs untreated cells) it was 80%; with U251 human glioma cells (day 6, vs untreated cells), 20%; in series [6], 59%. The “% inhibition of cell growth” value turned out to be 52% in series [7] (day 6, vs untreated cells); 70% in series [8] (5 μM); 10% in series [9] (day 6, vs untreated cells); 90% in series [10] (setting [15]); 14% in series [11] (day 6, vs untreated cells); 28% in series [12] (day 6, vs untreated cells). The cell deaths observed entry in [1] and in [2] was “no obvious cell deaths” in each case. The “inhibition of cell growth, range over the cancer cells of Table 1” value in the series on cells listed in Table 1 is listed as 10-90%. The “inhibition of HIV-1 viral infection and replication (HIV-1-induced Luciferase activity)” value (“inhibition … (HIV-1-induced Luciferase activity)” for short) in series [2] is “showed inhibition”.
Turning to `CC1=C(O)C(=O)C=C2C1=CC=C1[C@@]2(C)CC[C@@]2(C)[C@@H]3C[C@](C)(C(=O)O)CC[C@]3(C)CC[C@]12C` [celastrol, 3-hydroxy-24-nor-2-oxo-1(10),3,5,7-friedelatetraen-29-oic Acid, reference compound], the cell deaths observed result in series [2] was “no obvious cell deaths”. In addition, in [12] (day 6), the cell apoptosis entry was “about 90%”.
Turning to `COc1cc(O)c2c(c1)oc(=O)c1c3cc(O)c(O)cc3oc21` [7-Methoxy-5,11,12-trihydroxy-coumestan], the “% inhibition of cell growth” value is on record as ~25% in [5] (day 6, vs untreated cells); “about 51%” in [6]; ~31% in series [7] (day 6, vs untreated cells); ~29% in series [8] (5 μM); ~10% in series [9] (day 6, vs untreated cells).
As to `Nc1ccc2ncnc(NCCc3ccc(OCc4ccccn4)cc3)c2c1`, in series [1], the cell deaths observed entry is reported as “no obvious cell deaths”. In series [2], the cell deaths observed result was “no obvious cell deaths”; the “inhibition … (HIV-1-induced Luciferase activity)” value is on record as “showed inhibition”.
For `C=CCOc1ccc(CCNc2ncnc3ccc(N)cc23)cc1`, the cell deaths observed entry in series [1] and in [2] was “no obvious cell deaths” each time. Further, the “inhibition … (HIV-1-induced Luciferase activity)” value in [2] is “showed inhibition”.
As usually defined, the inhibition is the change of the read-out against control, counted positive when it falls. Lower therefore signals a response near the control. Take `Cc1ccc(S(=O)(=O)/C=C/C#N)cc1` [BAY 11-7082, (E)3-[(4-Methylphenyl)sulfonyl]-2-propenenitrile, reference compound]: the inhibition at 5 µM was 9 to 12% in series [3] (day 6, vs untreated cells); ~90% in series [4] (day 6, vs untreated cells); 9 to 12% in series [8]; 9 to 12% in [9] (setting [16]). In addition, the cell apoptosis entry in [5] (day 6) is “completely cell apoptosis”; with U251 human glioma cells it was “completely cell apoptosis”; in series [6], “completely cell apoptosis”; in [7] (day 6), “completely cell apoptosis”; in series [10] (5 μM, day 6), “completely cell apoptosis”; in series [11] (day 6), “completely cell apoptosis”.
Take `O=C(/C=C/c1ccc(O)c(O)c1)OCCc1ccccc1` [cape, reference compound]: in series [2], the cell deaths observed result was “no obvious cell deaths”; the “inhibition … (HIV-1-induced Luciferase activity)” value is reported as “showed inhibition”.
Consider `Nc1ccc2ncnc(NCCc3ccc(OCc4ccccc4)cc3)c2c1`, for which the cell deaths observed entry in [1] is given as “no obvious cell deaths”. Further, in [2], the cell deaths observed entry was “no obvious cell deaths”; the “inhibition … (HIV-1-induced Luciferase activity)” value is “showed inhibition”.
Consider `COc1ccc([C@@]23Oc4cc(OC)cc(OC)c4[C@]2(O)[C@H](O)[C@H](C(=O)N(C)C)[C@H]3c2ccccc2)cc1` [rocaglamide, reference compound], for which the cell deaths observed result in [2] is “no obvious cell deaths”. In series [2], the “inhibition … (HIV-1-induced Luciferase activity)” value is “showed inhibition”. The inhibition at 5 µM in [3] (day 6, vs untreated cells) is 9 to 40%; in series [4] (day 6, vs untreated cells) it was ~50%; in series [5] (setting [16]), 9 to 40%; in [7] (Homo sapiens, NCI-H1299, 144 h, day 6, vs untreated cells) it was ~80%; in series [8], 9 to 40%; in series [10] (setting [16]) it was ~70%. The compound further had an inhibition at 5 µM in series [11] (setting [16]) of 9 to 40%. Further, the cell apoptosis entry (in the series with U251 human glioma cells; in series [6]; in series [9] (day 6)) was “completely cell apoptosis” each time.
